Test results as given in US20220211678A1, “USES OF (+)-A-DIHYDROTETRABENAZINE IN METHODS OF TREATING MOVEMENT DISORDER” (ADEPTIO PHARMACEUTICALS LIMITED, priority 2017, published 2022).
Read-outs that look alike come from different tables or passages of the source.

Assays:
amphetamine-induced rats = assay: Amphetamine-induced locomotor activity and stereotypic behaviour, open field arena (Example 2, Studies 1, 2, 4); format: in vivo, rat; conditions: for normalised total stereotypic behaviour, compared to vehicle-amphetamine group / total distance travelled, compared to vehicle-amphetamine group: amphetamine at t=30 min; for locomotor activity compared to the vehicle-amphetamine group (conclusion) / stereotypic behaviour compared to the vehicle-amphetamine group (conclusion): risperidone 1 mg/kg
Description: Dopaminergic models for Tourette's syndrome use systemic or focal administration of dopamine agonists such as amphetamine. After injection with amphetamine, a test animal expresses stereotypic behaviour. In particular, involvement of a dopaminergic system implicated in Tourette's syndrome wild type mice and rats can be stimulated with amphetamine and the resulting hyperactivity and stereotypies can be reversed with dopamine antagonists such as risperidone and haloperidol (Tourette's syndrome—Animal Models for Screening, Charles River Discovery Research Services, Finland).
(§1) All animal experiments were carried out according to the National Institute of Health (NIH) guidelines for the care and use of laboratory animals, and approved by the National Animal Experiment Board, Finland. Male CD (Charles River Laboratories, Germany) at weight range of 200-250 g (165-200 g upon arrival) were used for the experiments. Animals were housed at a standard temperature (22±1° C.) and in a light-controlled environment (lights on from 7 am to 8 pm) with ad libitum access to food and water.
(§2) Locomotor activity of the rats was tested in open field arena. The open field test was performed during the rat light cycle and under a normal lighting evenly distributed to the test chambers. The paths of the rats were recorded by activity monitor (Med. Associates Inc.).
(§3) Dosing the vehicle, vehicle-amphetamine, (+)-α-DHTBZ or risperidone was done prior to LMA test. The rats were placed in the centre of the arena, and the path was recorded for 60 minutes.
(§4) Animals were grouped as follows: • Group 1: 10 rats treated with Vehicle (t=0 min) and Vehicle (t=30 min) • Group 2: 10 rats treated with Vehicle (t=0 min) and Amphetamine (t=30 min) • Group 3: 10 rats treated with (+)-α-DHTBZ 0.5 mg/kg (t=0 min) and Amphetamine (t=30 min) • Group 4: 10 rats treated with (+)-α-DHTBZ 1 mg/kg (t=0 min) and Amphetamine (t=30 min) • Group 5: 10 rats treated with (+)-α-DHTBZ 1.5 mg/kg (t=0 min) and Amphetamine (t=30 min) • Group 6: 10 rats treated with (+)-α-DHTBZ 2 mg/kg (t=0 min) and Amphetamine (t=30 min) • Group 7: 10 rats treated with risperidone 1 mg/kg (t=0 min) and Amphetamine (t=30 min)
Rats dosed with either vehicle, (+)-α-DHTBZ 0.5 mg/kg, (+)-α-DHTBZ 1 mg/kg, (+)-α-DHTBZ 1.5 mg/kg, (+)-α-DHTBZ 2 mg/kg or Risperidone 1 mg/kg were subjected to LMA testing first for 30 min and then for 60 minutes after vehicle or amphetamine challenge. Resulting locomotor activity was evaluated in 3 min bins and as a total over the testing period.
Rats dosed with either vehicle, (+)-α-DHTBZ 0.5 mg/kg, (+)-α-DHTBZ 1 mg/kg, (+)-α-DHTBZ 1.5 mg/kg, (+)-α-DHTBZ 2 mg/kg or Risperidone 1 mg/kg were subjected to LMA testing first for 30 min and then for 60 minutes after vehicle or amphetamine challenge. Resulting stereotypic activity was evaluated in 3 min bins and as a total over the testing period.
Animals were grouped as follows: • Group 1: 10 rats treated with Vehicle (t=0 min) and Vehicle (t=30 min) • Group 2: 10 rats treated with Vehicle (t=0 min) and Amphetamine (t=30 min) • Group 3: 10 rats treated with (+)-α-DHTBZ 0.1 mg/kg (t=0 min) and Amphetamine (t=30 min) • Group 4: 10 rats treated with (+)-α-DHTBZ 0.25 mg/kg (t=0 min) and Amphetamine (t=30 min) • Group 5: 10 rats treated with risperidone 1 mg/kg (t=0 min) and Amphetamine (t=30 min)
as §4, with “(+)-α-DHTBZ 1” for “(+)-α-DHTBZ 0.5”, “(+)-α-DHTBZ 1.5” for “(+)-α-DHTBZ 1”, “with Valbenazine 1” for “with (+)-α-DHTBZ 1.5”, “with Valbenazine 1.5” for “with (+)-α-DHTBZ 2”

[1] = tested on: Tardive Dyskinesia sufferers; conditions: 80 mg/day; cited from earlier work
[2] = tested on: patients suffering from tardive dyskinesia; conditions: cited from earlier work
[3] = rats, administration of tetrabenazine or dihydrotetrabenazine; stereochemistry not disclosed; cited from earlier work
[4] = oral administration of tetrabenazine, four patients affected by tardive dyskinesia; cited from earlier work
[5] = tested on: non-amphetamine induced rats; assay: Locomotor activity and stereotypic behaviour in non-amphetamine induced rats, open field arena (Example 2, Study 3); format: in vivo, rat; conditions: Study 3, non-induced rats; (+)-α-DHTBZ 2.5 mg/kg or 5 mg/kg, risperidone 1 mg/kg
Description: as §1, §2, §3
Animals were grouped as follows: • Group 1: 10 rats treated with Vehicle • Group 2: 10 rats treated with (+)-α-DHTBZ 2.5 mg/kg • Group 3: 10 rats treated with (+)-α-DHTBZ 5 mg/kg • Group 4: 10 rats treated with risperidone 1 mg/kg

[6] = oral administration of tetrabenazine, patients treated for involuntary movement disorders; cited from earlier work
[7] = Study 1, (+)-α-DHTBZ at all the tested doses (0.5, 1, 1.5, 2 mg/kg)

SMILES: COc1cc2c(cc1OC)[C@H]1C[C@@H](OC(=O)[C@@H](N)C(C)C)[C@H](CC(C)C)CN1CC2 [Valbenazine, reference compound]
- normalised total stereotypic behaviour, compared to vehicle-amphetamine group (amphetamine-induced rats; Study 4, 1 mg/kg): significantly different
- total distance travelled, compared to vehicle-amphetamine group (amphetamine-induced rats; Study 4, 1 mg/kg): significantly different
- normalised total stereotypic behaviour, compared to vehicle-amphetamine group (amphetamine-induced rats; Study 4, 1.5 mg/kg): significantly different
- total distance travelled, compared to vehicle-amphetamine group (amphetamine-induced rats; Study 4, 1.5 mg/kg): significantly different
- Abnormal Involuntary Movement Score [1]: significant improvement
- symptoms scored with the abnormal involuntary movement scale (AIMS) ([2]; 50 mg/day): did not show any significant signs of improvement
- symptoms scored with the abnormal involuntary movement scale (AIMS) ([2]; 100 mg/day): some reduction of symptoms

SMILES: COc1cc2c(cc1OC)C1CC(O)C(CC(C)C)CN1CC2 (stereo not drawn) [dihydrotetrabenazine, 2-hydroxy-3-(2-methylpropyl)-1,3,4,6,7,11b-hexahydro-9,10-dimethoxy-benzo(a)quinolizine]
- crossing of the blood-brain barrier [3]: able to cross the blood-brain barrier
- plasma concentrations [4]: relatively high concentrations

SMILES: Cc1nc2n(c(=O)c1CCN1CCC(c3noc4cc(F)ccc34)CC1)CCCC2 [risperidone, reference compound]
- normalised total stereotypic behaviour, compared to vehicle-amphetamine group (amphetamine-induced rats; Study 1, 1 mg/kg): significantly different
- locomotor activity compared to the vehicle-amphetamine group (conclusion) (amphetamine-induced rats; [7]): lower locomotor activity
- stereotypic behaviour compared to the vehicle-amphetamine group (conclusion) (amphetamine-induced rats; [7]): reduced stereotypic behaviour
- normalised total stereotypic behaviour, compared to vehicle-amphetamine group (amphetamine-induced rats; Study 2, 1 mg/kg): significantly different
- locomotor activity compared to the vehicle-amphetamine group (conclusion) (amphetamine-induced rats; Study 2, (+)-α-DHTBZ at 0.25 mg/kg): lower locomotor activity
- stereotypic behaviour compared to the vehicle-amphetamine group (conclusion) (amphetamine-induced rats; Study 2, (+)-α-DHTBZ at both the tested doses (0.1, 0.25 mg/kg)): reduced stereotypic behaviour
- normalised total stereotypic behaviour, compared to vehicle-amphetamine group (amphetamine-induced rats; Study 4, 1 mg/kg): significantly different
- total distance travelled, compared to vehicle-amphetamine group (amphetamine-induced rats; Study 4, 1 mg/kg): significantly different
- total movement compared to rats treated with the vehicle [5]: reduced total movement
- total stereotypic behaviour compared to rats treated with the vehicle [5]: reduced total stereotypic behaviour

SMILES: COc1cc2c(cc1OC)C1CC(=O)C(CC(C)C)CN1CC2 (stereo not drawn) [tetrabenazine, 1,3,4,6,7,11b-hexahydro-9,10-dimethoxy-3-(2-methylpropyl)-2H-benzo(a)quinolizin-2-one]
- plasma concentrations [6]: very low plasma concentrations
- plasma concentrations [4]: low plasma concentrations
